Laboratory results as given in paper PMC9671962 (Communications Biology, 2022).
Where “and” joins values, the source holds several entries; their conditions need not be identical. Identical values can stand only once. Like-named read-outs stand apart in the source and are kept apart here.

Experiments:
[1] = test system: COG-N-426x-FELIX; assay: Pre-clinical efficacy study, COG-N-426x-FELIX PDX; type: in vivo, mouse; settings: for Tumor Volume: COG-N-426x-FELIX tumor re-challenge (24 MBq/kg/fraction x 4); for EFS by AOC method / Tumor response (% growth from study initiation at ~ 200 mm3): single mouse
Description: (§1) Patient demographics and genetic characteristics are listed in (Supplementary Tables 1, 2)[17]. The maximum tolerated dose (MTD) was determined to be 36 MBq/kg administered by intra-peritoneal injection twice weekly for a total of 4 dose fractions and this fractionated regimen was used in all studies (Supplementary Fig. 1)[18],[19]. […] Nine of 11 PDX models were MYCN amplified (Fig. 1b), which is a hallmark of high-risk neuroblastoma. Tumor response was measured as the maximum percent decrease in tumor volume after treatment and event-free survival (EFS) was measured by the area over the curve method with tumor events pre-defined by tumor growth exceeding 2 cm[3],[18].
(§2) The use of 2 mice per arm was based on the previously reported statistical analysis. PDX tumors were implanted into the right flank of 5 to 6-weeks old female mice weighing about 20–25 grams. […] Two additional dose levels of 12, and 24 MBq/kg/fraction were assessed in a subset of models and were administered as stated above. In two models treated at the 24 MBq/kg/fraction dose level we re-challenged tumor response at the time of tumor progression with an additional 4 dose fractions at 24 MBq/kg/fraction given twice weekly. Doses were prepared in 500 µL total volume. An equal volume of saline was used for the vehicle group. Tumors were measured using a digital caliper at the initiation of the study and two times per week during the treatment period. Tumor volumes were calculated as volume = ([…]∗0.5236)/1000. Weights were obtained twice weekly and mice were monitored daily for signs of toxicity. […] Tumor response was assessed by best response defined as greatest reduction in tumor volume following the last dose and is presented as percent change in tumor volume. Event-free survival was determined by area over the curve method that calculates the time to tumor event, which was defined as tumors reaching or exceeding a size ≥ 2 cm^3.
(§3) Animal studies were performed in female mice due to the lack of sex-related differences for [^211At]PTT tolerability from initial dose response studies performed in female and male mice. Female mice were chosen due to their underlying behavior towards other study subjects that reduced nonstudy-related causes for decreased wellness. Pre-clinical efficacy studies were performed through “single mouse testing” to more closely recapitulate a clinical trial. […] Number size for treatment groups was determined by model tumor growth reproducibility, which was previously shown to have less than 5% normal variation with at least two animals. Statistical tests for tumor response and event-free survival (EFS) were performed as a grouped analysis that included all tumor models treated at each respective dose level (n = 2 per model per dose level). Statistical differences between treatment groups for tumor response was performed by paired-model T-test that compared reduction in tumor volume for the 36 MBq/kg dose level vs. 24 MBq/kg or 12 MBq/kg. Event free survival was measured by area over the curve method to quantify time to event, which was set as tumor growth exceeding 2 cm[3],[19]. Differences in EFS were tested across all treated models for each respective dose level, and against untreated controls, by paired-model ANOVA analysis. Associations of drug target expression and response were performed by linear regression analysis of EFS and PARP1 mRNA expression. Genetic signatures were visually presented as a function of EFS and no statistical tests were applied. Blood and marrow toxicity studies were performed with n = 5 sample sizes and powered to detect >20% differences between untreated controls and treated animals. Results were tested for significance by one-way ANOVA comparison from untreated controls. Marrow colony formation assays were performed in replicates of 2 for each mouse subject, dependent on marrow isolation, and all replicates are included in final analyses. […]

[2] = test system: COG-N-519x; assay: Pre-clinical efficacy study, COG-N-519x PDX; type: in vivo; settings: single mouse
Description: as §1, §2, §3

[3] = test system: COG-N-471x; assay: Pre-clinical efficacy study, COG-N-471x PDX; type: in vivo; settings: 36 MBq/kg/fraction x 4 fractions, single mouse
Description: as §1
(§4) The use of 2 mice per arm was based on the previously reported statistical analysis. […] Two additional dose levels of 12, and 24 MBq/kg/fraction were assessed in a subset of models and were administered as stated above. […] Tumors were measured using a digital caliper at the initiation of the study and two times per week during the treatment period. Tumor volumes were calculated as volume = ((diameter^1/2 + diameter^2/2)^3∗0.5236)/1000. Weights were obtained twice weekly and mice were monitored daily for signs of toxicity. […] Tumor response was assessed by best response defined as greatest reduction in tumor volume following the last dose and is presented as percent change in tumor volume. […]

[4] = test system: NB-1643x; assay: Pre-clinical efficacy study, NB-1643x PDX; type: in vivo; settings: 36 MBq/kg/fraction x 4 fractions, single mouse
Description: as §1, §4

[5] = type: in vivo, CB57 SCID mice
Description: Toxicity studies were done in nontumor bearing CB-17 SCID mice (Taconic Biosciences). […] Each arm had n = 10 mice (5 male, 5 female mice). […] The vehicle group received an equal volume of saline (placebo). Weights were obtained twice weekly and mice were monitored daily for signs of toxicity. […] On target hematological and marrow toxicity which was evaluated by complete blood counts and marrow colony formation assay. An additional study was performed under identical conditions to evaluate additive dose effects. […] Each treatment group was composed of equal numbers of male and female mice to rule out gender-specific effects (n = 4 per treatment group per time point). Mice were followed for signs of acute toxicity for 2 weeks and 4 weeks before euthanasia. An additional group (n = 4) treated at 36 MBq/kg was euthanized after 72 h to assess early signs of toxicity by colony formation assays. This time course was chosen to best capture the nadir of bone marrow suppression. After euthanasia, blood was collected and femurs were dissected and processed for histopathology and bone marrow evaluation.
Su p p lemen t ary Fig u res
Supplementary Fi g u re 1 : Maximum tolerated dose finding studies for [211At]PT T adm inistered as 4
dose fractions given twice weekly in male and female CB57 SCID mice (n=3 per sex per dose level).
(1 picture or pasted object on this page, not shown here)

[6] = COG-N-426x-FELIX, 24 MBq/kg/fraction x 4 fractions
[7] = COG-N-426x-FELIX, 36 MBq/kg/fraction x 4 fractions
[8] = 12 MBq/kg/fraction x 4 fractions
[9] = 24 MBq/kg/fraction x 4 fractions
[10] = 36 MBq/kg/fraction x 4 fractions

SMILES: O=C1NCCn2c(-c3ccc([211At])cc3)nc3cccc1c32 [[^211At]PTT, Astatine-211-parthanatine]
- Tumor Volume ([1]; week 0): 0.25 cm3
- Tumor Volume ([1]; week 0.4): 0.2 cm3
- Tumor Volume ([1]; week 0.9): 0.05 cm3
- Tumor Volume ([1]; week 1.3): 0.08 cm3
- Tumor Volume ([1]; week 1.9): 0.01 cm3
- Tumor Volume ([1]; week 2.3): 0.01 cm3
- Tumor Volume ([1]; week 2.9): 0 cm3
- Tumor Volume ([1]; week 3.4): 0.01 cm3
- Tumor Volume ([1]; week 3.9): 0 cm3
- Tumor Volume ([1]; week 4.4): 0 cm3
- Tumor Volume ([1]; week 4.9): 0 cm3
- Tumor Volume ([1]; week 5.3): 0 cm3
- Tumor Volume ([1]; week 5.9): 0 cm3
- Tumor Volume ([1]; week 6.3): 0.02 cm3
- Tumor Volume ([1]; week 6.9): 0.19 cm3
- Tumor Volume ([1]; week 7.3): 0.13 cm3
- Tumor Volume ([1]; week 7.9): 0.03 cm3
- Tumor Volume ([1]; week 8.3): 0.02 cm3
- Tumor Volume ([1]; week 8.9): 0 cm3
- Tumor Volume ([1]; week 9.3): 0 cm3
- Tumor Volume ([1]; week 9.9): 0 cm3
- Tumor Volume ([1]; week 10.3): 0 cm3
- Tumor Volume ([1]; week 10.9): 0 cm3
- Tumor Volume ([1]; week 11.3): 0 cm3
- Tumor Volume ([1]; week 11.9): 0 cm3
- Tumor Volume ([1]; week 12.3): 0 cm3
- Tumor Volume ([1]; week 12.9): 0 cm3
- Tumor Volume ([1]; week 13.3): 0 cm3
- Tumor Volume ([1]; week 13.9): 0 cm3
- Tumor Volume ([1]; week 14.3): 0 cm3
- Tumor Volume ([1]; week 14.9): 0 cm3
- EFS1 (initial treatment) ([1]; COG-N-426x-FELIX, 24 MBq/kg/fraction x 4, re-challenged mouse n = 1): 49 days and 49.5 days
- EFS by AOC method [1, 6]: 103. 9 Days
- Tumor response (% growth from study initiation at ~ 200 mm3) [1, 6]: -100%
- EFS by AOC method [1, 7]: 104. 1 Days and 104.134 Days and 104.127 Days
- Tumor response (% growth from study initiation at ~ 200 mm3) [1, 7]: -100%
- EFS2 (re-challenge treatment) ([1]; COG-N-426x-FELIX, re-challenge 24 MBq/kg/fraction x 4 at tumor progression, no measurable disease): 59 days
- EFS by AOC method [2, 8]: 22.7688 days and 33.292 days
- Tumor response (% growth from study initiation at ~ 200 mm3) [2, 8]: -46.1538% and -36.8421%
- EFS by AOC method [2, 9]: 28.2857 days and 42.6471 days
- Tumor response (% growth from study initiation at ~ 200 mm3) [2, 9]: -83.871% and -100%
- EFS by AOC method [2, 10]: 82.4 Days and 100. 5 Days and 82.4108 Days and 100.511 Days
- Tumor response (% growth from study initiation at ~ 200 mm3) [2, 10]: -100%
- EFS by AOC method [3]: 83.4773 days and 64.9075 days
- Tumor response (% growth from study initiation at ~ 200 mm3) [3]: -100%
- EFS by AOC method [4]: 90.5 days and 76.6 days and 90.5782 days and 76.6342 days
- Tumor response (% growth from study initiation at ~ 200 mm3) [4]: -95.4545% and -100%
- maximum tolerated dose (MTD) ([5]; intra-peritoneal, twice weekly, total of 4 dose fractions): 36 MBq/kg
- maximum tolerated dose (MTD) ([5]; x4 fractionated regimen, SCID PDX mice): 36 MBq/kg/fraction
